Experimental data from patent US20200163984A1, “USE OF ISOVALERYL SPIRAMYCIN I, II AND/OR III IN MANUFACTURING MEDICAMENT FOR TREATING AND/OR PREVENTING TUMOR, AND MEDICAMENT” (SHENYANG FUYANG PHARMACEUTICAL TECHNOLOGY CO., LTD., priority 2017, published 2020).
Like-named read-outs stand apart in the source and are kept apart here.

Legend:
[1] = tested on: transplanted tumor of human non-small cell lung cancer cell H1299
[2] = tested on: transplanted tumor of human lymphoma cell U937; experiment: U937 transplanted tumor in nude mice; settings: for Tumor Volume (mm3) (d 1): d1
Method in brief: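 Nude mice inoculated subcutaneously (right armpit) with U937 cells in matrigel (1×10^7/ml, 0.2 ml); at tumors ≥100 mm^3, 6 per group dosed intragastrically at 25, 50 or 100 mg/kg for 30 days. Volume (a×b^2/2) every 3 days gave RTV and T/C; tumor-weight inhibition versus model group at sacrifice.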

[3] = tested on: transplanted tumor of mouse Lewis lung cancer; experiment: Transplanted tumor of mouse Lewis lung cancer; settings: for Tumor Volume (mm3) (d 1) / Tumor Volume (mm3) (d30) / Relative Tumor Proliferation Rate (T/C) / Relative Tumor Volume (RTV): title prints KM mouse H22 cells; for Tumor Volume (mm3) (d30): d 30; for Body Weight (g) (d1) / Body Weight (g) (d 15): mouse, in vivo
Method in brief: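 C57BL/6 mice were inoculated subcutaneously with Lewis lung cancer cells (0.2 ml of 1×10^7/mL) in the right armpit and grouped the next day (10 per group). Mice were dosed intragastrically at 13, 26 or 52 mg/kg for 15 days. Tumours were weighed the day after the last dose, and inhibition was calculated as (1−T/C)×100%.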

[4] = H1299, 25 mg/kg (low dose) i.g. 30 days
[5] = H1299, 50 mg/kg (medium dose) i.g. 30 days
[6] = H1299, 100 mg/kg (high dose) i.g. 30 days
[7] = U937, high dose (100 mg/kg in method) i.g. 30 days
[8] = U937, low dose (25 mg/kg in method) i.g. 30 days
[9] = U937, medium dose (50 mg/kg in method) i.g. 30 days

CCC(=O)O[C@@H]1CC(=O)O[C@H](C)C/C=C/C=C/[C@H](O[C@H]2CC[C@H](N(C)C)[C@@H](C)O2)[C@H](C)C[C@H](CC=O)[C@H](O[C@@H]2O[C@H](C)[C@@H](O[C@H]3C[C@@](C)(O)[C@@H](OC(=O)CC(C)C)[C@H](C)O3)[C@H](N(C)C)[C@H]2O)[C@H]1OC [Isovaleryl spiramycin III, isovaleryl spiramycin III]
Inhibition Rate (tumor growth inhibition rate) [1, 4]: 13.11%
Relative Tumor Proliferation Rate (T/C) [1, 4]: 89.88%
Relative Tumor Volume (RTV) [1, 4]: 11.52 ± 2.51
Tumor Volume (d 1) [1, 4]: 137.58 ± 14.95 mm3
Tumor Volume (d 30) [1, 4]: 1565.97 ± 277.97 mm3
Tumor Weight [1, 4]: 1.51 ± 0.30 g
Inhibition Rate (tumor growth inhibition rate) [1, 5]: 49.38%
Relative Tumor Proliferation Rate (T/C) [1, 5]: 48.11%
Relative Tumor Volume (RTV) [1, 5]: 6.17 ± 2.64
Tumor Volume (d 1) [1, 5]: 137.82 ± 17.12 mm3
Tumor Volume (d 30) [1, 5]: 816.87 ± 299.03 mm3
Tumor Weight [1, 5]: 0.88 ± 0.20 g
Inhibition Rate (tumor growth inhibition rate) [1, 6]: 62.78%
Relative Tumor Proliferation Rate (T/C) [1, 6]: 32.43%
Relative Tumor Volume (RTV) [1, 6]: 4.16 ± 1.90
Tumor Volume (d 1) [1, 6]: 137.09 ± 12.95 mm3
Tumor Volume (d 30) [1, 6]: 557.82 ± 209.73 mm3
Tumor Weight [1, 6]: 0.65 ± 0.17 g
tumor volume and relative tumor volume compared with the model group ([1]; H1299, low, medium and high doses, P<0.05): significantly lower
mouse weight compared with the model group ([1]; mouse, in vivo): no significant changes
Relative Tumor Proliferation Rate (T/C) [2, 7]: 38.66%
tumor growth inhibition rate [2, 7]: 61.77%
Relative Tumor Proliferation Rate (T/C) [2, 8]: 63.36%
tumor growth inhibition rate [2, 8]: 41.19%
tumor volume and relative tumor volume compared with the model group ([2]; U937, low, medium and high doses, P<0.05): significantly lower
Relative Tumor Proliferation Rate (T/C) [2, 9]: 49.30%
tumor growth inhibition rate [2, 9]: 53.03%
Inhibition Rate (%) ([2]; U937 nude mice, 12.5 mg/kg): 41.19%
Relative Tumor Proliferation Rate (T/C) ([2]; U937 nude mice, 12.5 mg/kg): 63.36%
Relative Tumor Volume (RTV) ([2]; U937 nude mice, 12.5 mg/kg): 10.80 ± 3.02
Tumor Weight ([2]; U937 nude mice, 12.5 mg/kg): 1.14 ± 0.54 g
Tumor Volume (mm3) (d 1) ([2]; U937 nude mice, 12.5 mg/kg): 119.70 ± 18.30 mm3
Tumor Volume (mm3) (d30) ([2]; U937 nude mice, 12.5 mg/kg): 1314.25 ± 479.76 mm3
Inhibition Rate (%) ([2]; U937 nude mice, 25 mg/kg): 53.03%
Relative Tumor Proliferation Rate (T/C) ([2]; U937 nude mice, 25 mg/kg): 49.30%
Relative Tumor Volume (RTV) ([2]; U937 nude mice, 25 mg/kg): 8.40 ± 2.25
Tumor Weight ([2]; U937 nude mice, 25 mg/kg): 0.91 ± 0.51 g
Tumor Volume (mm3) (d 1) ([2]; U937 nude mice, 25 mg/kg): 112.93 ± 27.42 mm3
Tumor Volume (mm3) (d30) ([2]; U937 nude mice, 25 mg/kg): 939.79 ± 296.72 mm3
Inhibition Rate (%) ([2]; U937 nude mice, 50 mg/kg): 61.77%
Relative Tumor Proliferation Rate (T/C) ([2]; U937 nude mice, 50 mg/kg): 38.66%
Relative Tumor Volume (RTV) ([2]; U937 nude mice, 50 mg/kg): 6.59 ± 0.90
Tumor Weight ([2]; U937 nude mice, 50 mg/kg): 0.74 ± 0.18 g
Tumor Volume (mm3) (d 1) ([2]; U937 nude mice, 50 mg/kg): 112.85 ± 21.90 mm3
Tumor Volume (mm3) (d30) ([2]; U937 nude mice, 50 mg/kg): 728.49 ± 51.66 mm3
mouse weight compared with the model group ([2]; mouse, in vivo): no significant changes
Body Weight (g) (d1) ([2]; mouse, in vivo, 12.5 mg/kg): 20.84 ± 0.68 g
Body Weight (g) (d30) ([2]; mouse, in vivo, 12.5 mg/kg): 20.92 ± 0.63 g
Body Weight (g) (d1) ([2]; mouse, in vivo, 25 mg/kg): 20.91 ± 0.58 g
Body Weight (g) (d30) ([2]; mouse, in vivo, 25 mg/kg): 20.74 ± 0.352 g
Body Weight (g) (d1) ([2]; mouse, in vivo, 50 mg/kg): 21.16 ± 0.61 g
Body Weight (g) (d30) ([2]; mouse, in vivo, 50 mg/kg): 21.24 ± 0.50 g
growth of Lewis lung cancer in mice ([3]; 13, 26 and 52 mg/kg i.g. 15 days): significantly inhibit
Tumor Volume (mm3) (d 1) ([3]; dose 12.5 mg/kg): 105.02 ± 31.31 mm3
Tumor Volume (mm3) (d30) ([3]; dose 12.5 mg/kg): 1270.87 ± 198.05 mm3
Relative Tumor Proliferation Rate (T/C) ([3]; dose 12.5 mg/kg): 84.57
Relative Tumor Volume (RTV) ([3]; dose 12.5 mg/kg): 13.54 ± 6.73
Inhibition Rate (%) ([3]; dose 13 mg/kg): 35.46%
Tumor Weight ([3]; dose 13 mg/kg): 1.03 ± 0.18 g
Tumor Volume (mm3) (d 1) ([3]; dose 25 mg/kg): 103.29 ± 29.09 mm3
Tumor Volume (mm3) (d30) ([3]; dose 25 mg/kg): 841.92 ± 385.16 mm3
Relative Tumor Proliferation Rate (T/C) ([3]; dose 25 mg/kg): 58.38
Relative Tumor Volume (RTV) ([3]; dose 25 mg/kg): 9.35 ± 5.89
Inhibition Rate (%) ([3]; dose 26 mg/kg): 48.96%
Tumor Weight ([3]; dose 26 mg/kg): 0.82 ± 0.34 g
Tumor Volume (mm3) (d 1) ([3]; dose 50 mg/kg): 104.43 ± 23.09 mm3
Tumor Volume (mm3) (d30) ([3]; dose 50 mg/kg): 677.35 ± 237.77 mm3
Relative Tumor Proliferation Rate (T/C) ([3]; dose 50 mg/kg): 41.81
Relative Tumor Volume (RTV) ([3]; dose 50 mg/kg): 6.69 ± 2.56
Inhibition Rate (%) ([3]; dose 52 mg/kg): 57.54%
Tumor Weight ([3]; dose 52 mg/kg): 0.68 ± 0.18 g
Body Weight (g) (d1) ([3]; 13 mg/kg): 19.62 ± 1.30 g
Body Weight (g) (d 15) ([3]; 13 mg/kg): 22.52 ± 0.57 g
Body Weight (g) (d1) ([3]; 26 mg/kg): 19.58 ± 0.63 g
Body Weight (g) (d 15) ([3]; 26 mg/kg): 22.28 ± 0.66 g
Body Weight (g) (d1) ([3]; 52 mg/kg): 20.00 ± 0.60 g
Body Weight (g) (d 15) ([3]; 52 mg/kg): 22.42 ± 1.66 g
